≈ marks a conversion by molar mass, not a printed value.
Legend:
[1] = physchem; settings: kinetic from dmso stock
In short: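 DMSO doubling dilutions were diluted twenty-fold into 100 mM citrate (pH 4), PBS (pH 7.4) or carbonate-bicarbonate (pH 9). After 24 h equilibration at room temperature, absorbance was read at 620 nm. The reported value is the highest concentration without measurable precipitate.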

[2] = test system: Haemophilus influenzae (Isolate ID ATCC 49247); experiment: Antibacterial activity, MIC, H. influenzae; assay type: cell-based; settings: Haemophilus influenzae, ATCC49247; Gram negative strain; broth microdilution or agar dilution
In short: (§1)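 Readout is the MIC, established according to CLSI standard M7-A7 using either agar dilution or broth microdilution.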

[3] = test system: Streptococcus pyogenes (Isolate ID ATCC 51339); experiment: Antibacterial activity, MIC, S. pyogenes; assay type: cell-based; settings: Streptococcus pyogenes, ATCC51339, Gram positive strain; broth microdilution or agar dilution
In short: as §1

[4] = test system: Staphylococcus aureus (Isolate ID ATCC 29213); experiment: Antibacterial activity, MIC, S. aureus; assay type: cell-based; settings: Staphylococcus aureus, ATCC29213, Gram positive strain; broth microdilution or agar dilution
In short: as §1

[5] = test system: Enterococcus faecalis (Isolate ID ATCC 29212); experiment: Antibacterial activity, MIC, E. faecalis; assay type: cell-based; settings: Enterococcus faecalis, ATCC29212; Gram positive strain; broth microdilution or agar dilution
In short: as §1

[6] = pH 7.4, aqueous buffer, Max Solubility
[7] = pH 7.4, aqueous buffer, Solubility (pH 7.4)
[8] = pH 7.4, aqueous buffer, Solubility Range
[9] = pH 7.4, aqueous buffer, Solubility Range (maximum solubility)
[10] = pH 9, aqueous buffer, Max Solubility
[11] = pH 9, aqueous buffer, Solubility Range (maximum solubility)

Structure (SMILES) | solubility at 24 h [1, 6] [µg/mL] | solubility at 24 h [1, 7] [µg/mL] | solubility at 24 h [1, 8] [µg/mL] | solubility at 24 h [1, 9] [µg/mL] | MIC [2] [µg/mL] | MIC [3] [µg/mL] | MIC [4] [µg/mL] | MIC [5] [µg/mL] | solubility at 24 h [1, 10] [µg/mL] | solubility at 24 h [1, 11] [µg/mL] | solubility at 24 h ([1]; pH 4, aqueous buffer, Max Solubility) [µg/mL] | solubility at 24 h ([1]; pH 4, aqueous buffer, Solubility Range (maximum solubility)) [µg/mL]
CCNC(=O)Nc1nc2cc(-c3cnc(N4CCC(C)(C(=O)O)CC4)nc3)cc(-c3ncc(F)cc3F)c2s1 [Compound 54] | ≥ 800 | ≥ 800 | > 800 | > 800 | 1 to 16 (≈ 1.81 to 28.9 µM) | ≤ 0.25 | ≤ 0.25 | ≤ 0.25 |  |  |  | 
CCNC(=O)Nc1nc2cc(-c3cnc(N4CCC(C)(C(=O)O)CC4)nc3)cc(-c3nccc(OC)c3F)c2s1 [Compound 55] |  | 400 (≈ 707 µM) | 400 to 800 (≈ 707 to 1410 µM) |  | 0.25 to 1 (≈ 0.442 to 1.77 µM) | ≤ 0.25 | ≤ 0.25 | ≤ 0.25 | ≥ 800 | > 800 |  | 
CCNC(=O)Nc1nc2cc(-c3cnc(N4CCC(C)(C(=O)O)CC4)nc3)cc(-c3cnc(OC)cn3)c2s1 [Compound 56] | ≥ 800 | ≥ 800 | > 800 | > 800 | 0.25 to 1 (≈ 0.456 to 1.82 µM) | ≤ 0.25 | ≤ 0.25 | ≤ 0.25 |  |  |  | 
CCNC(=O)Nc1nc2cc(-c3cnc(N4CCC(C)(C(=O)O)CC4)nc3)cc(-c3cc(=O)n(C(C)C)cn3)c2s1 [Compound 57] |  | 200 (≈ 347 µM) | 12.5 to 400 (≈ 21.7 to 694 µM) |  | 1 to 16 (≈ 1.73 to 27.7 µM) | 0.25 to 1 (≈ 0.434 to 1.73 µM) | 1 to 16 (≈ 1.73 to 27.7 µM) | 0.25 to 1 (≈ 0.434 to 1.73 µM) | 400 (≈ 694 µM) | 400 to 800 (≈ 694 to 1390 µM) |  | 
CCNC(=O)Nc1nc2cc(-c3cnc(N4CCC(C)(C(=O)O)CC4)nc3)cc(-c3ccc(C#N)c(C)n3)c2s1 [Compound 58] |  | 25 (≈ 44.9 µM) | 12.5 to 400 (≈ 22.5 to 719 µM) |  | 1 to 16 (≈ 1.8 to 28.7 µM) | ≤ 0.25 | ≤ 0.25 | ≤ 0.25 | 50 (≈ 89.8 µM) | 12.5 to 400 (≈ 22.5 to 719 µM) |  | 
CCNC(=O)Nc1nc2cc(-c3cnc(N4CCC(C)(C(=O)O)CC4)nc3)cc(-c3ncc(C)cn3)c2s1 [Compound 59] | ≥ 800 | ≥ 800 | > 800 | > 800 | ≤ 0.25 | ≤ 0.25 | ≤ 0.25 | ≤ 0.25 |  |  |  | 
CCNC(=O)Nc1nc2cc(-c3cnc(N4CCC(C)(C(=O)O)CC4)nc3)cc(-c3ncc(CC)cn3)c2s1 [Compound 60] |  | 12.5 (≈ 22.9 µM) | 12.5 to 400 (≈ 22.9 to 732 µM) |  | 0.25 to 1 (≈ 0.457 to 1.83 µM) | ≤ 0.25 | ≤ 0.25 | ≤ 0.25 | 400 (≈ 732 µM) | 400 to 800 (≈ 732 to 1460 µM) |  | 
CCNC(=O)Nc1nc2cc(-c3cnc(N4CCC(C)(C(=O)O)CC4)nc3)cc(-c3ncccc3OC)c2s1 [Compound 61] | ≥ 800 | ≥ 800 | > 800 | > 800 | 1 to 16 (≈ 1.83 to 29.2 µM) | ≤ 0.25 | ≤ 0.25 | ≤ 0.25 |  |  |  | 
CCNC(=O)Nc1nc2cc(-c3cnc(N4CCC(C)(C(=O)O)CC4)nc3)cc(-c3nc(OC)ccc3N)c2s1 [Compound 62] | ≥ 800 | ≥ 800 | > 800 | > 800 | 1 to 16 (≈ 1.78 to 28.4 µM) | 0.25 to 1 (≈ 0.444 to 1.78 µM) | 0.25 to 1 (≈ 0.444 to 1.78 µM) | ≤ 0.25 |  |  |  | 
CCNC(=O)Nc1nc2cc(-c3cnc(N4CCC(C)(C(=O)O)CC4)nc3)cc(-c3ncc(C#N)cc3F)c2s1 [Compound 63] |  | 400 (≈ 714 µM) | 400 to 800 (≈ 714 to 1430 µM) |  | 1 to 16 (≈ 1.78 to 28.5 µM) | ≤ 0.25 | ≤ 0.25 | ≤ 0.25 | ≥ 800 | > 800 |  | 
CCNC(=O)Nc1nc2cc(-c3cnc(N4CCC(C)(C(=O)O)CC4)nc3)cc(-c3nc(C)ccc3OC)c2s1 [Compound 64] | ≥ 800 | ≥ 800 | > 800 | > 800 | 1 to 16 (≈ 1.78 to 28.5 µM) | ≤ 0.25 | ≤ 0.25 | ≤ 0.25 |  |  |  | 
CCNC(=O)Nc1nc2cc(-c3cnc(N4CCC(C)(C(=O)O)CC4)nc3)cc(-c3ncc(C)cc3C#N)c2s1 [Compound 65] | 12.5 (≈ 22.5 µM) | 12.5 (≈ 22.5 µM) | 12.5 to 400 (≈ 22.5 to 719 µM) | 12.5 to 400 (≈ 22.5 to 719 µM) | 1 to 16 (≈ 1.8 to 28.7 µM) | ≤ 0.25 | ≤ 0.25 | ≤ 0.25 |  |  |  | 
CCNC(=O)Nc1nc2cc(-c3cnc(N4CCC(C)(C(=O)O)CC4)nc3)cc(-c3cnc(C)cn3)c2s1 [Compound 66] | ≥ 800 | ≥ 800 | > 800 | > 800 | 0.25 to 1 (≈ 0.469 to 1.88 µM) | ≤ 0.25 | ≤ 0.25 | ≤ 0.25 |  |  |  | 
CCNC(=O)Nc1nc2cc(-c3cnc(N4CCC(C)(C(=O)O)CC4)nc3)cc(-c3ccncn3)c2s1 [Compound 67] | ≥ 800 | ≥ 800 | > 800 | > 800 | 1 to 16 (≈ 1.93 to 30.9 µM) | ≤ 0.25 | ≤ 0.25 | ≤ 0.25 |  |  |  | 
CCNC(=O)Nc1nc2cc(-c3cnc(N4CCC(C)(C(=O)O)CC4)nc3)cc(-c3cc(OCC)ccn3)c2s1 [Compound 68] | ≥ 800 | ≥ 800 | > 800 | > 800 | 0.25 to 1 (≈ 0.445 to 1.78 µM) | ≤ 0.25 | ≤ 0.25 | ≤ 0.25 |  |  |  | 
CCNC(=O)Nc1nc2cc(-c3cnc(N4CCC(C)(C(=O)O)CC4)nc3)cc(-c3ncc(C#N)cc3C)c2s1 [Compound 69] | ≥ 800 | ≥ 800 | > 800 | > 800 | 1 to 16 (≈ 1.8 to 28.7 µM) | 0.25 to 1 (≈ 0.449 to 1.8 µM) | 1 to 16 (≈ 1.8 to 28.7 µM) | ≤ 0.25 |  |  |  | 
CCNC(=O)Nc1nc2cc(-c3cnc(N4CCC(C)(C(=O)O)CC4)nc3)cc(-c3nccc4occc34)c2s1 [Compound 70] | ≥ 800 | ≥ 800 | > 800 | > 800 | 1 to 16 (≈ 1.79 to 28.7 µM) | ≤ 0.25 | ≤ 0.25 | ≤ 0.25 |  |  |  | 
CCNC(=O)Nc1nc2cc(-c3cnc(N4CCC(C)(C(=O)O)CC4)nc3)cc(-c3nccc(N(C)C)c3C#N)c2s1 [Compound 71] |  | 6.25 (≈ 10.7 µM) | < 12.5 |  | 0.25 to 1 (≈ 0.427 to 1.71 µM) | ≤ 0.25 | 0.25 to 1 (≈ 0.427 to 1.71 µM) | ≤ 0.25 |  |  | 50 (≈ 85.4 µM) | 12.5 to 400 (≈ 21.3 to 683 µM)
CCNC(=O)Nc1nc2cc(-c3cnc(N4CCC(C)(C(=O)O)CC4)nc3)cc(/C=N/OC)c2s1 [Compound 72, (E)-1-(5-(2-(3-ethylureido)-7-((methoxyimino)methyl)benzo[d]thiazol-5-yl)pyrimidin-2-yl)-4-methylpiperidine-4-carboxylic acid] | ≥ 800 | ≥ 800 | > 800 | > 800 | 0.25 to 1 (≈ 0.502 to 2.01 µM) | ≤ 0.25 | ≤ 0.25 | ≤ 0.25 |  |  |  | 
CCNC(=O)Nc1nc2cc(-c3cnc(N4CCC(C)(C(=O)O)CC4)nc3)cc(-c3cncc(OC(C)(C)C)n3)c2s1 [Compound 73] |  | 400 (≈ 677 µM) | 400 to 800 (≈ 677 to 1350 µM) |  | > 16 | 1 to 16 (≈ 1.69 to 27.1 µM) | 0.25 to 1 (≈ 0.423 to 1.69 µM) | ≤ 0.25 | ≥ 800 | > 800 |  | 

— patent US9181234B2, “Antibacterial compounds” (priority 2010, dated 2015)
